Patent US9663496B2, “AMPK-activating heterocyclic compounds and methods for using the same” (Rigel Pharmaceuticals, Inc., priority 2010, dated 2017)

Target: AMPK
Experiment: AMPK activation, enzyme-linked immunosorbent assay
Type: biochemical
Settings: EC50 for AMPK activation, ELISA
In short: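 Activator screen performed per well-known kit methods.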

Row | SMILES | EC50
1 | N#Cc1ccc(-c2ccc(Nc3ccc(C(=O)NC4CCN(Cc5ccccc5)CC4)nc3)cc2)cc1 [Compound 119, N-(1-benzylpiperidin-4-yl)-5-(4′-cyanobiphenyl-4-ylamino)picolinamide] | 1000 to 5000 nM
2 | COc1ccc(C(=O)C2CCN(C(=O)c3ccc(C(=O)Nc4ccc(Oc5ccc(C(C)=O)cc5)nc4)cn3)CC2)cc1 [Compound 462, N-(6-(4-acetylphenoxy)pyridin-3-yl)-6-(4-(4-methoxybenzoyl)piperidine-1-carbonyl)nicotinamide] | < 500 nM
3 | CS(=O)(=O)c1ccc(OC2CCN(C(=O)c3ccc(C(=O)NC4CCN(Cc5cc(F)cc(F)c5)CC4)nc3)CC2)cc1 [Compound 203, N-(1-(3,5-difluorobenzyl)piperidin-4-yl)-5-(4-(4-(methylsulfonyl)phenoxy)piperidine-1-carbonyl)picolinamide] | < 500 nM
4 | N#Cc1ccc(CN2CCC(NC(=O)c3ccc(C(=O)NCCOc4ccc(F)cc4)cn3)CC2)cc1 [Compound 149, N2-(1-(4-cyanobenzyl)piperidin-4-yl)-N5-(2-(4-fluorophenoxy)ethyl)pyridine-2,5-dicarboxamide] | 500 to 1000 nM
5 | COc1ccc(CN2CCC(NC(=O)c3ccc(C(=O)N4CCC(Oc5cccc(NC(C)=O)c5)CC4)nc3)CC2)cc1 [Compound 412, 6-(4-(3-acetamidophenoxy)piperidine-1-carbonyl)-N-(1-(4-methoxybenzyl)piperidin-4-yl)nicotinamide] | 1000 to 5000 nM
6 | CS(=O)(=O)c1ccc(OC2CCN(C(=O)c3ccc(C(=O)NC4CCN(Cc5ccc(N6CCCC6)cc5)CC4)cn3)CC2)cc1 [Compound 230, 6-(4-(4-(methylsulfonyl)phenoxy)piperidine-1-carbonyl)-N-(1-(4-(pyrrolidin-1-yl)benzyl)piperidin-4-yl)nicotinamide] | 500 to 1000 nM
7 | CC(C)(C)OC(=O)NCC#Cc1cc(C(=O)N2CCN(Cc3ccc(F)cc3)CC2)cnc1C(=O)NC1CCN(Cc2ccc(C#N)cc2)CC1 [Compound 164, tert-butyl 3-(2-(1-(4-cyanobenzyl)piperidin-4-ylcarbamoyl)-5-(4-(4-fluorobenzyl)piperazine-1-carbonyl)pyridin-3-yl)prop-2-ynylcarbamate] | 500 to 1000 nM
8 | COc1ccc(C(=O)C2CCN(C(=O)c3ccc(C(=O)N[C@@H]4CCN(Cc5ccc(OC(C)C)cc5)C[C@H]4F)cn3)CC2)cc1 (relative stereo) [Compound 353, N-((trans)-3-fluoro-1-(4-isopropoxybenzyl)piperidin-4-yl)-6-(4-(4-methoxybenzoyl)piperidine-1-carbonyl)nicotinamide] | < 500 nM
9 | O=C(Nc1ccc(Oc2ccc(F)cc2)nc1)c1ccc(C(=O)N2CCC(C(=O)c3ccc(N4CCOCC4)cc3)CC2)cn1 [Compound 379, N-(6-(4-fluorophenoxy)pyridin-3-yl)-5-(4-(4-morpholinobenzoyl)piperidine-1-carbonyl)picolinamide] | < 500 nM
10 | N#Cc1ccc(CC2CCN(C(=O)c3ccc(C(=O)NC4CCN(Cc5ccc(C#N)cc5)CC4)nc3)CC2)cc1 [Compound 128, N-(1-(4-cyanobenzyl)piperidin-4-yl)-5-(4-(4-cyanobenzyl)piperidine-1-carbonyl)picolinamide] | < 500 nM
11 | N#Cc1ccc(CN2CCC(NC(=O)c3ccc(C(=O)N4CCN(c5ccc(C(=O)C6CC6)cc5)CC4)cn3)CC2)cc1 [Compound 258, N-(1-(4-cyanobenzyl)piperidin-4-yl)-5-(4-(4-(cyclopropanecarbonyl)phenyl)piperazine-1-carbonyl)picolinamide] | < 500 nM
12 | COc1ccc(C(=O)C2CCN(c3ccc(C(=O)N4CCN(Cc5ccc(F)cc5)CC4)cn3)CC2)cc1 [Compound 189, (4-(4-fluorobenzyl)piperazin-1-yl)(6-(4-(4-methoxybenzoyl)piperidin-1-yl)pyridin-3-yl)methanone] | 1000 to 5000 nM
13 | COc1ccc(C(=O)C2CCN(C(=O)c3ccc(C(=O)Nc4ccc(Oc5ccc(C(=O)N(C)C)cc5)nc4)cn3)CC2)cc1 [Compound 480, N-(6-(4-(dimethylcarbamoyl)phenoxy)pyridin-3-yl)-6-(4-(4-methoxybenzoyl)piperidine-1-carbonyl)nicotinamide] | < 500 nM
14 | COc1ccc(CN2CCC(NC(=O)c3ccc(C(=O)N4CCN(Cc5ccc(C#N)cc5)CC4)cn3)CC2)cc1 [Compound 285, 5-(4-(4-cyanobenzyl)piperazine-1-carbonyl)-N-(1-(4-methoxybenzyl)piperidin-4-yl)picolinamide] | < 500 nM
15 | N#Cc1ccc(CN2CCC(NC(=O)c3ccc(C(=O)N4CCC(Oc5ccc(NC(=O)CCOCCOCCOCCOCCNC(=O)CCC[C@@H]6SC[C@@H]7NC(=O)N[C@@H]76)cc5)CC4)nc3)CC2)cc1 [Compound 371, N-(1-(4-cyanobenzyl)piperidin-4-yl)-6-(4-(4-(17-oxo-20-((3aS,4S,6aR)-2-oxohexahydro-1H-thieno[3,4-d]imidazol-4-yl)-4,7,10,13-tetraoxa-16-azaicosanamido)phenoxy)piperidine-1-carbonyl)nicotinamide] | > 10000 nM
16 | N#Cc1ccc(OC2CCN(C(=O)c3ccc(C(=O)NC4CCN(c5ccc(C#N)cc5)CC4)cn3)CC2)cc1 [Compound 418, 6-(4-(4-cyanophenoxy)piperidine-1-carbonyl)-N-(1-(4-cyanophenyl)piperidin-4-yl)nicotinamide] | < 500 nM

Row | SMILES | EC50
17 | CS(=O)(=O)c1ccc(C(=O)C2CCN(C(=O)c3ccc(C(=O)N[C@@H]4CCN(Cc5ccc(OC(F)(F)F)cc5)C[C@H]4F)nc3)CC2)cc1 (relative stereo) [Compound 253, N-((trans)-3-fluoro-1-(4-(trifluoromethoxy)benzyl)piperidin-4-yl)-5-(4-(4-(methylsulfonyl)benzoyl)piperidine-1-carbonyl)picolinamide] | 500 to 1000 nM
18 | COc1ccc(OC2CCN(C(=O)c3ccc(C(=O)N[C@H]4CC[C@@H](Oc5ccc(OC)cc5)CC4)nc3)CC2)cc1 [Compound 186, N-((cis)-4-(4-methoxyphenoxy)cyclohexyl)-5-(4-(4-methoxyphenoxy)piperidine-1-carbonyl)picolinamide] | < 500 nM
19 | N#Cc1ccc(OC2CCN(C(=O)c3ccc(C(=O)NC4CCN(Cc5cc(F)cc(F)c5)CC4)nc3)CC2)cc1 [Compound 289, 5-(4-(4-cyanophenoxy)piperidine-1-carbonyl)-N-(1-(3,5-difluorobenzyl)piperidin-4-yl)picolinamide] | < 500 nM
20 | COc1ccc(C(=O)C2CCN(c3ccc(C(=O)NC4CCN(Cc5ccc(C#N)cc5)CC4)nn3)CC2)cc1 [Compound 362, N-(1-(4-cyanobenzyl)piperidin-4-yl)-6-(4-(4-methoxybenzoyl)piperidin-1-yl)pyridazine-3-carboxamide] | < 500 nM
21 | N#Cc1ccc(CN2CCC(NC(=O)c3ccc(C(=O)N4CCC(Oc5cccnc5)CC4)cn3)CC2)cc1 [Compound 283, N-(1-(4-cyanobenzyl)piperidin-4-yl)-5-(4-(pyridin-3-yloxy)piperidine-1-carbonyl)picolinamide] | < 500 nM
22 | CC(C)(c1ccccc1)N1CCN(C(=O)c2ccc(C(=O)NC3CCN(Cc4ccc(C#N)cc4)CC3)nc2)CC1 [Compound 133, N-(1-(4-cyanobenzyl)piperidin-4-yl)-5-(4-(2-phenylpropan-2-yl)piperazine-1-carbonyl)picolinamide] | < 500 nM
23 | CC(=O)Nc1cccc(OC2CCN(C(=O)c3ccc(C(=O)NC4CCN(Cc5ccc(C#N)cc5)CC4)cn3)CC2)c1 [Compound 411, 6-(4-(3-acetamidophenoxy)piperidine-1-carbonyl)-N-(1-(4-cyanobenzyl)piperidin-4-yl)nicotinamide] | 1000 to 5000 nM
24 | COc1ccc(C(=O)C2CCN(C(=O)c3ccc(C(=O)NCCOc4ccc(F)cc4)nc3)CC2)cc1 [Compound 305, N-(2-(4-fluorophenoxy)ethyl)-5-(4-(4-methoxybenzoyl)piperidine-1-carbonyl)picolinamide] | < 500 nM
25 | CC(=O)c1ccc(Oc2ccc(NC(=O)c3ccc(C(=O)N4CCN(c5ccc(S(=O)(=O)C(C)C)cc5)CC4)nc3)cn2)cc1 [Compound 489, N-(6-(4-acetylphenoxy)pyridin-3-yl)-6-(4-(4-(isopropylsulfonyl)phenyl)piperazine-1-carbonyl)nicotinamide] | < 500 nM
26 | CS(=O)(=O)c1ccc(OC2CCN(C(=O)c3ccc(C(=O)NC4CCN(Cc5cccc(OC(F)(F)F)c5)CC4)nc3)CC2)cc1 [Compound 242, 5-(4-(4-(methylsulfonyl)phenoxy)piperidine-1-carbonyl)-N-(1-(3-(trifluoromethoxy)benzyl)piperidin-4-yl)picolinamide] | < 500 nM
27 | COc1ccc(C(=O)C2CCN(C(=O)c3ccc(C(=O)N[C@@H]4CCN(Cc5ccc(C#N)cc5)C[C@H]4F)cn3)CC2)cc1 [Compound 452, N-((3R,4R)-1-(4-cyanobenzyl)-3-fluoropiperidin-4-yl)-6-(4-(4-methoxybenzoyl)piperidine-1-carbonyl)nicotinamide] | < 500 nM
28 | COc1ccc(-c2ccc(Nc3ccc(C(=O)NC4CCN(Cc5ccccc5)CC4)nc3)cc2)cc1 [Compound 120, N-(1-benzylpiperidin-4-yl)-5-(4′-methoxybiphenyl-4-ylamino)picolinamide] | > 10000 nM
29 | O=C(NC1CCN(Cc2ccccc2)CC1)c1ccc(Nc2cccc(-c3ccccc3)c2)cn1 [Compound 114, N-(1-benzylpiperidin-4-yl)-5-(biphenyl-3-ylamino)picolinamide] | 1000 to 5000 nM
30 | N#Cc1ccc(CN2CCC(NC(=O)c3ccc(C(=O)N4CCC(C(=O)c5ccc(N6CCCC6)cc5)CC4)nc3)CC2)cc1 [Compound 377, N-(1-(4-cyanobenzyl)piperidin-4-yl)-6-(4-(4-(pyrrolidin-1-yl)benzoyl)piperidine-1-carbonyl)nicotinamide] | < 500 nM
31 | O=C(NC1CCN(Cc2ccc(OC(F)(F)F)cc2)CC1)c1ccc(C(=O)N2CCC(Oc3ccc(S(F)(F)(F)(F)F)cc3)CC2)nc1 [Compound 494, 6-(4-(4-(pentafluorosulfanyl)phenoxy)piperidine-1-carbonyl)-N-(1-(4-(trifluoromethoxy)benzyl)piperidin-4-yl)nicotinamide] | < 500 nM
32 | N#Cc1ccc(CN2CCC(NC(=O)c3ccc(C(=O)N4CCN(Cc5ccncc5)CC4)cn3)CC2)cc1 [Compound 103, N-(1-(4-cyanobenzyl)piperidin-4-yl)-5-(4-(pyridin-4-ylmethyl)piperazine-1-carbonyl)picolinamide] | < 500 nM
